For data set [1] the following is noted: at 25 °C; cited from earlier work.
For data set [2] the following is noted: Example 2; for ratio of dissolved metals (Al, Si and Fe) to base: unadjusted solutions, both stages.
Procedure: Other example embodiments of the present invention were evaluated in laboratory testing using mixtures of 0.02 g of boehmite and 0.02 g of silica sand (B+S), and 0.23 g of magnetite (B+S+M). These mixtures were heated at 80 °C for 1 day, with 40 mL volumes of solutions of 1500 ppm (0.15%) of TMAH in de-ionized water, without pH adjustment, adjusted with boric acid to a room-temperature pH of 11.0, or adjusted with boric acid to a room-temperature pH of 9.0.
All the solutions were sparged with nitrogen for 15 minutes at the beginning of each experiment.
After one day (∼ 24 hours), the solutions were removed for analysis of dissolved Al, Si, and Fe. The experiment on the residual solids was continued for an additional 2-day interval using fresh volumes of the original solutions. In addition to the fractions of each oxide dissolved during the experiment, the mole ratios of metals dissolved to base (TMAH or DMA) introduced were also calculated.
The conditions of data set [3]: Example 1; both stages; covers B+S and B+S+M.
Procedure: An example embodiment of the present invention was evaluated in laboratory testing using mixtures of 0.06 g of boehmite and 0.06 g of silica sand (B+S) or of 0.06 g of boehmite, 0.06 g of silica sand, and 0.68 g of magnetite (B+S+M). These mixtures were heated at 80 °C for 1 day, with 40 mL volumes of a solution of 381 ppm (0.0381%) of TMAH in de-ionized water, adjusted with boric acid to a room-temperature pH of 11.0.
At the end of 1 day, the solutions were removed for analysis of dissolved Al, Si, and Fe, and the experiment on the residual solids was continued for an additional 2-day interval using fresh volumes of the original solutions. In addition to the fractions of each oxide dissolved during the experiment, the mole ratios of metals dissolved to base (TMAH or DMA) introduced were also calculated.
For data set [4] the following is noted: Example 4; covers B+S and B+S+M.
Procedure: Another example embodiment of the present invention was evaluated in laboratory testing using mixtures of 0.06 g of boehmite and 0.06 g of silica sand (B+S) or of 0.06 g of boehmite, 0.06 g of silica sand, and 0.68 g of magnetite (B+S+M). These mixtures were heated at 80 °C for 1 day, with 40 mL volumes of a combined solution of 50.8 g/L (5.08%) of TMAH and 10 g•L^-1 (1%) of ethylenediaminetetra-acetic acid (EDTA) in de-ionized water.
At the end of 1 day, the solutions were removed for analysis of dissolved Al, Si, and Fe. In addition to fractions of each oxide dissolved during the experiment, the mole ratios of the amount of metals dissolved to base (TMAH or DMA) introduced were also calculated.
For data set [5] the following is noted: Example 3; both stages; covers B+S and B+S+M.
Procedure: Another example embodiment of the present invention was evaluated in laboratory testing using mixtures of 0.06 g of boehmite and 0.06 g of silica sand (B+S) or of 0.06 g of boehmite, 0.06 g of silica sand, and 0.68 g of magnetite (B+S+M). These mixtures were heated at 80 °C for 1 day with 40 mL volumes of a solution of 46 ppm (0.0046%) of TMAH in de-ionized water, having a room-temperature pH of 10.8.
At the end of 1 day, the solutions were removed and analyzed for dissolved Al, Si, and Fe. The experiment on the residual solids was continued for an additional 2-day interval using fresh volumes of the original solutions. In addition to the fraction of each oxide dissolved during the experiment, the mole ratios of metals dissolved to base (TMAH or DMA) introduced were also calculated.
For data set [6] the following is noted: cited from earlier work.
Data set [7] is described as follows: Coupon corrosion test with pre-heated TMAH solutions (Example 9). To be noted: 5 wt% TMAH + 1 wt% EDTA. How it is done: In order to determine the effect of possible thermal degradation of TMAH on its corrosivity towards steel, C1018 carbon steel coupons were tested in three solutions of 5 wt% TMAH + 1 wt% EDTA. […] One of these solutions was not pre-exposed to elevated temperatures. The second solution was exposed to a temperature of 130 ±10 °C for two days before being used in the test. During pre-heating period, the 20-mL Parr bomb in which the solution was heated was almost full, leaving very little vapor space above the solution. The third solution was similarly pre-heated at 130 ±10 °C for two days, but the Parr bomb was only half-full, holding 10 mL of solution and 10 mL of air. The three TMAH solutions were later used in testing of 1018 carbon steel coupons in 40 mL of testing solution for 1 week.

Data set [8] is described as follows: Dissolution of boehmite (Example 5). To be noted: 0.03 g boehmite alone.
The conditions of data set [9]: Example 11; base raised from 0.15-0.2 wt% to 5 wt%; covers both solids.
Procedure: In order to verify this assumption, solutions of TMAH were compared with those of the similarly strong base choline hydroxide (CholOH). Mixtures of 0.06 g sand + 0.06 g boehmite or 0.06 g sand + 0.06 g boehmite + 0.68 g magnetite were exposed to volumes of 40 mL of several solutions of TMAH or CholOH for 48 hours at a temperature of 80 °C. Each experiment was carried out in duplicate. The spent test solutions were analyzed to determine the concentrations of dissolved Si, Al, and Fe and the percentage of each of the corresponding oxides in the test solutions was calculated.

Molecules are shown by their SMILES. Where two headings read alike, the source gives them in different places.

For the compound `CNC` [DMA, dimethylamine, reference compound], in [1], the pKa entry was “about 10.61”. For the same compound, in [2], the “ratio of dissolved metals (Al, Si and Fe) to base” value is listed as 0.03-0.06. Moreover, the “ratio of dissolved Al to base” value is listed as 0.06-0.07 in data set [3] and 0.04-0.10 in data set [5]. In addition, the “ratio of total dissolved metal (predominantly dissolved Al) to introduced base” value in data set [4] is 0.02-0.04.
With `CCCCN` [mono-N-butylamine], the pH in [1] is on record as 10.61.
As for `C[N+](C)(C)C.[OH-]` [TMAH, Tetramethylammonium hydroxide], the “thermally stable in aqueous solutions up to” value in data set [6] was 130-135 °C. In addition, the “pH of the solution” value in data set [7] (after pre-heating in the absence of air) is given as “approximately 13.4”; in data set [7] (before pre-heating) it was “approximately 13.0”. Moreover, the “dissolution of Al higher by a factor, versus DMA solution” value in data set [8] came out at 13. Moreover, in data set [9], the “extent of dissolution of boehmite increased by a factor” value is on record as “approximately 1.7”. Also, the “mole ratios higher by factors, TMAH versus DMA” value in data set [2] (pH adjusted solutions) is on record as 2-8. The “ratio of dissolved metals (Al, Si and Fe) to base” value in data set [2] is 0.09-0.10. Also, the figures for the “ratio of dissolved Al to base” value in data set [3] and in data set [5] were 0.24-0.29 and 0.05-0.27, respectively. The “more effective than DMA by a factor (mole ratio calculations)” value in data set [4] is on record as 4-7. For the same compound, the “ratio of total dissolved metal (predominantly dissolved Al) to introduced base” value in data set [4] was 0.15-0.16.
On to `C[N+](C)(C)CCO.[OH-]` [CholOH, choline hydroxide], for which the “extent of dissolution of boehmite increased by a factor” value in [9] is reported as “approximately 1.7”.
In the case of `C1=NCCCN2CCCCC12` (stereo not shown) [1,5-diazabicyclo(5,4,0)undec-5-ene], the pH in [1] was 13.40.

These data come from patent EP2348142B1, “Method and composition for removing scale deposits formed on a metal surface within a steam generating system” (Westinghouse Electric Company LLC, priority 2010, dated 2011).
